The source made the active and inactive calls.
Columns and labels:
[1] = molecular target: Endoplasmic reticulum aminopeptidase 1 (Homo sapiens, UniProt Q9NZ08); test: ERAP1 aminopeptidase inhibitors, dose response, biochemical, cherry-pick, set 2, plate reader (AID 743314)
[2] = molecular target: T1, Aminopeptidase N (Plasmodium falciparum FcB1/Columbia, UniProt O96935); test: P. falciparum M1AAP inhibitors, biochemical, fluorogenic H-Leu-NHMec substrate, 1536-well (AID 1445); parameters: species or system Plasmodium falciparum 3D7, 3D7
T1 sequence (O96935 whole entry): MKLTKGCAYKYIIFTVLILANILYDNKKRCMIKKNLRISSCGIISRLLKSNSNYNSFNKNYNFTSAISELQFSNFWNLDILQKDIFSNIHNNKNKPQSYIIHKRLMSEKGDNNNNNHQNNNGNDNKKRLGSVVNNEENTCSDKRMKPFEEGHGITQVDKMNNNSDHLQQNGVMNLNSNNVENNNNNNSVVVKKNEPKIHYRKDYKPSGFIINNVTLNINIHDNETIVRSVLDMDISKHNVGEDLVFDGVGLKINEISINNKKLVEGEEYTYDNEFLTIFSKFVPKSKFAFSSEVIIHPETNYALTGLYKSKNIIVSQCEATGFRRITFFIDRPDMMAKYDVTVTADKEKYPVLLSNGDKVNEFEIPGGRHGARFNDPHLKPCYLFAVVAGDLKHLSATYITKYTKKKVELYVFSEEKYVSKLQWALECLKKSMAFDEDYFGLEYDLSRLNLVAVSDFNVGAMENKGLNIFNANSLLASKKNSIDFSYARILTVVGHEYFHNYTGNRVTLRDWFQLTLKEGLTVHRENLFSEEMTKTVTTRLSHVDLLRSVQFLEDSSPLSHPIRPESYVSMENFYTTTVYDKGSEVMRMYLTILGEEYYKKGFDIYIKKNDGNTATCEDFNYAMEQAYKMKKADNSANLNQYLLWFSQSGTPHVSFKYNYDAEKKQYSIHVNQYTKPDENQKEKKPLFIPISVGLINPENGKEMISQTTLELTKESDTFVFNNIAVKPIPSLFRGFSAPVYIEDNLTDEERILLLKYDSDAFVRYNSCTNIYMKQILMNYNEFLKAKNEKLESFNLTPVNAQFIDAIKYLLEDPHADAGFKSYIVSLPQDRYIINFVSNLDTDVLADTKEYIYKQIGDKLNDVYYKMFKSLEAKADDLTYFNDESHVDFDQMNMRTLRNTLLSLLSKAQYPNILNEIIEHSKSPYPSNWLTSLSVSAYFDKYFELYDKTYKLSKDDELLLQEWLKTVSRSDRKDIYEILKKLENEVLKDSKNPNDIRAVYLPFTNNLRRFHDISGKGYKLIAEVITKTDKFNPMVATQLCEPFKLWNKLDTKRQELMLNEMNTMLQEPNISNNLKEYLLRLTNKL

[3] = human group III sPLA2 inhibitors, dose response, biochemical, QFRET, IC50 (AID 743457);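 note: green fluorescence rise as the enzyme cleaves BODIPY PC-A2 in liposomes; potency for inhibition of the enzyme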
[4] = molecular target: Albumin (Bos taurus, UniProt P02769); test: Counterscreen for inhibitors of T-cell receptor (TCR)-CD3 interaction: Fluorescence-based biochemical high throughput dose response assay to identify inhibitors of T-cell receptor (TCR)-CD3 interaction using a TAMRA-labeled BSA probe.; format: functional
[5] = molecular target: T2, Leucine aminopeptidase (Plasmodium falciparum 3D7, UniProt Q8IL11); test: P. falciparum M17LAP inhibitors, primary screen, biochemical, fluorogenic H-Leu-NHMec substrate, 1536-well (AID 1619); format: functional
T2 sequence (Q8IL11 whole entry): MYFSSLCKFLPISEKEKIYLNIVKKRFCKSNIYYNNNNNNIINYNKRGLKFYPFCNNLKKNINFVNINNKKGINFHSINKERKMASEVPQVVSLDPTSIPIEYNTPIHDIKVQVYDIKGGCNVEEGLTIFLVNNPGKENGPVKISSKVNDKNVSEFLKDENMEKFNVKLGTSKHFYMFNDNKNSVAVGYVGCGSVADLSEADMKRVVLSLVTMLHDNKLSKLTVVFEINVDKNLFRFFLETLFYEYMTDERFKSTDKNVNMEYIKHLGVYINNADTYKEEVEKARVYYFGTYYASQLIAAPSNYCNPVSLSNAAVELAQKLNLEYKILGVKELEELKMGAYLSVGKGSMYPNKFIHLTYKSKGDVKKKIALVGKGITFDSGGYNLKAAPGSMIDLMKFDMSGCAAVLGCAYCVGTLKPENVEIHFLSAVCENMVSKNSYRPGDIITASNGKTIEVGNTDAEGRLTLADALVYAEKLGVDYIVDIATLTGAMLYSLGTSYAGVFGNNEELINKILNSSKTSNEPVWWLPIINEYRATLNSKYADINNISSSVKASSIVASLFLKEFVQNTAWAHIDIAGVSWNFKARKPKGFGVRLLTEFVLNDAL

[6] = molecular target: T3, Heat shock factor protein 1 (Mus musculus, UniProt P38532); test: inhibition of MG132-induced HSE-luciferase signal, confirmation, cell-based, NIH3T3, luminescence, dose retest (AID 2382); format: functional;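 note: NIH3T3 fibroblasts with HSF1-driven luciferase reporter stressed by proteasome inhibitor MG132; luminescence from HSF1-driven luciferase expression after 8 hours of MG132 stress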
T3 sequence (P38532 whole entry): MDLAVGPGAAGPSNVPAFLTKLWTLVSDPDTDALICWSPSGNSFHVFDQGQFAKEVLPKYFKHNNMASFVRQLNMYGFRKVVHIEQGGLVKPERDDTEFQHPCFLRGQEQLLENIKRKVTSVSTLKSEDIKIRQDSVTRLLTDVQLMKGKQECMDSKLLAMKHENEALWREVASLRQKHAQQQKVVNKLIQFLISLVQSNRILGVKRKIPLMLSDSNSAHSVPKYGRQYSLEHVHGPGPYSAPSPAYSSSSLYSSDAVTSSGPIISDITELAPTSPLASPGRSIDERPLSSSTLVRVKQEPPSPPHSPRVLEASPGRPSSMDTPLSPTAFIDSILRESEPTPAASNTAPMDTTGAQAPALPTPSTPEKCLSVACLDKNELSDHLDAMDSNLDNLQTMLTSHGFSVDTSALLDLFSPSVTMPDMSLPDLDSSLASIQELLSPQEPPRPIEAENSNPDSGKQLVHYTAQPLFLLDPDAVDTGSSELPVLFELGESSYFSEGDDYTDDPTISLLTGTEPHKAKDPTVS

[7] = cells
[8] = molecular target: Major prion protein (Homo sapiens, UniProt P04156); format: functional, cell-based
[9] = cytotoxicity in OVCAR8 ovarian cancer cells, dose response, PAX8 project, cell-based, plate reader, dry powder samples (AID 743197); format: functional; conditions: OVCAR-8
[10] = IGROV1 ovarian cancer cell cytotoxicity, dose response, PAX8 inhibitor project, plate reader, dry powder samples (AID 743043); format: functional, cell-based; conditions: IGROV-1
[11] = NIH:OVCAR-3 ovarian cancer cell cytotoxicity, dose response, PAX8 inhibitor project, plate reader, dry powder samples (AID 743044); format: functional, cell-based
[12] = molecular target: Paired box protein Pax-8 (Homo sapiens, UniProt Q06710); test: inhibitors of PAX8-driven TPO luciferase reporter, dose response, RMG-I cells, cherry-pick (AID 687027); format: functional, cell-based;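 note: luciferase reporter driven by Pax8 target thyroperoxidase promoter measured by SteadyGlo luminescence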
[13] = A375 melanoma cell viability loss, dose response, counter-screen for MITF inhibitor project, CellTiter-Glo luminescence, dry powder, set 4 (AID 624364); format: functional, cell-based; conditions: A-375;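 note: A375 melanoma cells are MITF independent so this is a counter screen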
[14] = A375 melanoma cell cytotoxicity, dose response, counter-screen for MITF inhibitor project, CellTiter-Glo luminescence, dry powder, set 2 (AID 624489); format: functional, cell-based; conditions: A-375;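 note: actives are compounds lowering A375 viability meaning general cytotoxicity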
[15] = HepG2 cell cytotoxicity, dose response, cytotoxicity control, plate reader, cherry-pick, antagonist series (AID 743416); format: functional, cell-based
[16] = MC4R antagonists, dose response, counter-screen for LGR2 antagonist project, cell-based, plate reader, cherry pick (AID 743444); format: functional;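 note: transfected HEK 293 cells stimulated with alpha-MSH peptide; potency of inhibitors of the alpha-MSH evoked signal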
[17] = LGR2 antagonists, dose response, cell-based, HEK293, CRE-luciferase reporter, cherry pick, set 2 (AID 743343); format: functional;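 note: transfected cells were stimulated with diluted bursicon conditioned medium after compound addition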
[18] = A549 cell cytotoxicity, dose response, cytotoxicity control, plate reader, cherry-pick, antagonist series (AID 743412); format: functional, cell-based
[19] = P. falciparum ATP4 D1247Y mutant growth inhibitors, dose response, NITD609-resistant line, SYBR Green, dry powder (AID 1159571); format: functional, cell-based;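 note: parasites synchronized at ring stage by sorbitol before testing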
[20] = P. falciparum 3D7-ScDHODH growth inhibitors, dose response, SYBR Green, dry powder samples (AID 1159570); format: functional, cell-based;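 note: parasite growth measured after 72 hours of compound exposure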
[21] = P. falciparum Dd2 growth inhibitors, dose response, SYBR Green, dry powder samples (AID 1159566); format: functional, cell-based;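 note: potency for growth inhibition with lower SYBR green DNA signal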
[22] = P. falciparum Dd2 growth inhibitors, dose response, SYBR Green, cherry-picked samples (AID 1159567); format: functional, cell-based
[23] = HepG2 cell cytotoxicity, dose response, cytotoxicity control, plate reader, dry powder samples (AID 1159569); format: functional, cell-based;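 note: inhibitor potency with signal falling toward the positive control level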
[24] = molecular target: T4, RNA-binding protein pos-1 (Caenorhabditis elegans, UniProt G5EF15); test: inhibitors of POS-1/mex-3 RNA binding, dose response, biochemical, fluorescence polarization (AID 1964);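 note: purified POS-1 fused to maltose binding protein made in E. coli; potency of compounds blocking POS-1 binding to fluorescent RNA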
T4 sequence (G5EF15 whole entry): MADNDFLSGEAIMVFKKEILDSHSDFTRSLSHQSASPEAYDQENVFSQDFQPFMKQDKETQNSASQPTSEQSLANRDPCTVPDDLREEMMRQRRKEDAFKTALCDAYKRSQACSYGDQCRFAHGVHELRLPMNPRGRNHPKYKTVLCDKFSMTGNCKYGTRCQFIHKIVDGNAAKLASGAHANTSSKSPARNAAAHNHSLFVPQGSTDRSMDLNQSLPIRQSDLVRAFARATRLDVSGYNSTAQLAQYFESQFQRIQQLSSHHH

[25] = molecular target: T5, Zinc finger protein mex-5 (Caenorhabditis elegans, UniProt Q9XUB2); test: MEX-5/TCR-2 RNA interaction inhibitors, dose response, biochemical, C. elegans, fluorescence polarization (AID 1960)
T5 sequence (Q9XUB2 whole entry): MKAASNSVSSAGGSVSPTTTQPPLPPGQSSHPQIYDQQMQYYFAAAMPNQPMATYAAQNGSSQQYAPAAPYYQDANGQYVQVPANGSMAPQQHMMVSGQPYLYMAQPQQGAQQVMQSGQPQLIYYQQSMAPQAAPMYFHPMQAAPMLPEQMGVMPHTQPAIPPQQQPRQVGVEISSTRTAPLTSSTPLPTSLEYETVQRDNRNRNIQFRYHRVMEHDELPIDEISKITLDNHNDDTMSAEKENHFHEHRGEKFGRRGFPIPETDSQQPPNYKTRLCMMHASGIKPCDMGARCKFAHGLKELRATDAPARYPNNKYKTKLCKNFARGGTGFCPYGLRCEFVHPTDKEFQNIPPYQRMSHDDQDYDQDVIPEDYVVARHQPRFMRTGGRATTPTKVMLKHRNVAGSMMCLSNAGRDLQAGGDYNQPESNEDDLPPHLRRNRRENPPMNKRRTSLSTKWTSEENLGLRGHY

[26] = inhibitors of intracellular T. cruzi replication, confirmation, NIH3T3 host cells, beta-gal luminescence (AID 2044); format: functional, cell-based;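 note: intracellular parasites grown in NIH/3T3 mouse fibroblasts as host cells; luminescent beta-galactosidase reporter signal from transgenic T. cruzi replicating inside host cells; inhibitors lower the luminescence signal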
[27] = cytotoxicity toward NIH3T3 fibroblasts, dose response, counter-screen, cell-based, ATP luminescence, mouse fibroblasts (AID 2010); format: functional;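 note: cells exposed to compound for about 90 hours before reading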
[28] = HepG2 cell cytotoxicity, dose response, cytotoxicity control, cherry-picked samples (AID 1159577); format: functional, cell-based

CCCc1cc(=O)oc2c(CN(CC)CC)c(O)c(Cl)cc12
AC50 [1]: 7.13 µM (active)
IC50 [2]: 37 µM (active)

Cc1cc(C(=O)NN=C(S)NC2CCCCC2)cs1
IC50 [3]: > 122 µM (inactive)

CCn1c(S)nnc1-c1cccn(Cc2ccc(Cl)cc2Cl)c1=O
IC50 [3]: > 122 µM (inactive)

CC/C(NNC(=O)c1ccccc1O)=C1/C(=O)NC(=O)N(Cc2ccccc2)C1=O
IC50 [4]: > 94.1 µM (inactive)
IC50 [5]: 47.3 µM (active)
EC50 [6]: 30.2 µM (active)
IC50 [2]: 7.8 µM (active)

CCCCOc1ccc(C(=O)C2=C(O)C(=O)N(Cc3cccnc3)C2c2ccncc2)c(C)c1 (stereo not given)
IC50 [7]: > 138 µM (inactive)
IC50 [8]: 4.21 µM (active)

Cc1nc(SCC(=O)NNC(=O)c2ccc(F)cc2)c2ccccc2n1
IC50 [7]: > 138 µM (inactive)
IC50 [8]: 2.26 µM (active)

O=c1ccc2cc(O[C@@H]3O[C@H](CO)[C@@H](O)[C@H](O)[C@H]3O)c(O)cc2o1
AC50 [1]: 1.72 µM (active)

COc1cccc(-c2ccc3c(c2)[C@H]2[C@H](CCN2S(=O)(=O)c2ccccc2F)[C@@H](CO)N3)c1
AC50 [9]: 21.9 µM (active)
AC50 [10]: 31.4 µM (active)
AC50 [11]: 19.1 µM (active)
AC50 [12]: 3.92 µM (active)

O=C1C(NS(=O)(=O)c2ccccc2)=C(N2CCCCC2)C(=O)c2ccccc21
AC50 [13]: > 70 µM (inactive)
AC50 [14]: > 70 µM (inactive)

N#C[C@@H]1[C@H](c2ccc(C#Cc3ccccc3F)cc2)[C@@H](CO)N1C(=O)C1CCC1
AC50 [15]: 31.5 µM (active)
AC50 [16]: 22.5 µM (active)
AC50 [17]: 29.9 µM (active)
AC50 [18]: 31.2 µM (active)

C[C@@H]1CN([C@H](C)CO)C(=O)c2c(c3ccccc3n2C)-c2ccccc2CO[C@@H]1CN(C)C(=O)[C@H](C)c1ccccc1
AC50 [19]: 1.33 µM (active)
AC50 [20]: 1.66 µM (active)
AC50 [21]: 1.1 µM (active)
AC50 [22]: 1.39 µM (active)
AC50 [23]: 45.5 µM (active)

Cc1ccc(-c2ccc([C@@H]3[C@H](CO)N4CCCCN(C(=O)Nc5cccc(F)c5)C[C@@H]34)cc2)cc1
AC50 [9]: > 70 µM (inactive)
AC50 [10]: 18.1 µM (active)
AC50 [11]: 7.83 µM (active)

O=C(N/N=C/c1cc(Cl)cc([N+](=O)[O-])c1O)c1ccc2c(c1)OCO2
EC50 [24]: 127 µM (active)
EC50 [25]: 241 µM (active)
IC50 [4]: > 94.1 µM (inactive)
EC50 [26]: 1.1 µM (active)
EC50 [27]: 5.65 µM (active)

CCCC#Cc1ccc([C@H]2[C@H](CO)N3CCCCN(CC4CCOCC4)C[C@@H]23)cc1
AC50 [28]: 26.9 µM (active)
AC50 [22]: 3.68 µM (active)

COc1cccc(NC(=O)N2[C@H](CO)[C@@H](c3ccccc3)[C@H]2CNCC(C)C)c1
AC50 [19]: 1.64 µM (active)
AC50 [20]: 1.44 µM (active)
AC50 [21]: 1.58 µM (active)
AC50 [22]: 1.75 µM (active)
AC50 [23]: 43.5 µM (active)

O=C(NC1=C(c2ccc(Oc3ccccc3)cc2)C(=O)c2ccccc2C1=O)c1ccccc1
AC50 [13]: > 70 µM (inactive)
AC50 [14]: > 70 µM (inactive)

Reference: ChEMBL document CHEMBL1201862, “PubChem BioAssay data set” (2004)
